Data taken from publication PMC12503911, “Cytotoxicity of Atropisomeric [1,1′‐Binaphthalene]‐2,2′‐Diamines (BINAM) and Analogs in Human Cancer Cells: Enantioselectivity, Structure–Activity Relationships, and Mechanism” (Chemmedchem, 2025).
Where two headings read alike, the source gives them in different places.

Tests used:
WEE1 = WEE1 (Homo sapiens, UniProt P30291); assay: biochemical; set-up: 33PanQinase radiometric kinase activity assay, residual activity in % of control, contract lab Reaction Biology; conditions: mean of intraexperimental duplicates, n = 1
Chain of WEE1 (P30291 whole entry): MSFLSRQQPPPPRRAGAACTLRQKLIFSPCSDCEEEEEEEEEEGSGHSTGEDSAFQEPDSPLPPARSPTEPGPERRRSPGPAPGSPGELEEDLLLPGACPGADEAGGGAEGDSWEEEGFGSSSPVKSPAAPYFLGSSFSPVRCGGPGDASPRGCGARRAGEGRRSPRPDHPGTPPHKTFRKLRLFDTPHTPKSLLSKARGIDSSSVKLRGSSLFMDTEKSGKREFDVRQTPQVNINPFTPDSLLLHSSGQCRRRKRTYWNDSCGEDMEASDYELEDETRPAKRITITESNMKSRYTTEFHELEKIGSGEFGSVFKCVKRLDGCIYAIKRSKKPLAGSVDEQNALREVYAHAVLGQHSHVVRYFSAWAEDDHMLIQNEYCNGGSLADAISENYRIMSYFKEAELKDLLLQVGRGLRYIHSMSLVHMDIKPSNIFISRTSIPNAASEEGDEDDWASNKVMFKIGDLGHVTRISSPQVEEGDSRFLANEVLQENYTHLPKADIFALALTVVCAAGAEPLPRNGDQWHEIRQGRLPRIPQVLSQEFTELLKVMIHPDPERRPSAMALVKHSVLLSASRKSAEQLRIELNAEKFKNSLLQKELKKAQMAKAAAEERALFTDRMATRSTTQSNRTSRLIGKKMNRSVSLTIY
Protocol: (§1) Kinase Screening was performed at Reaction Biology (Freiburg, Germany) by using the ^33PanQinase Assay.^[ [90] ^] Based on this knowledge, we commissioned a kinase screening by the firm Reaction Biology, targeting those kinases whose inhibition has shown an indirect effect on microtubules. In our selection, we included additional kinases that are known to be involved in centrosome amplification (PLK4^[ [82] ^]), centrosome clustering (CDK1/2,^[ [83] ^] PLK1^[ [84] ^]), spindle multipolarity (SRC^[ [85] ^]), microtubule dynamics (AKT1^[ [86] ^]), and LIMK1/2 activation (ROCK1^[ [87] ^]) or are crucial for the mitosis (BUB1B, NEK2/9, WEE1^[ [88] ^]). Nonetheless, 1(R) and 1(S) at 10 µM had almost no inhibitory effects on any of the chosen kinases (Table 4 ). Only Aurora A (mean residual activity for 1(R): 86%, 1(S): 98%) and ASK1 (mean residual activity for 1(R): 90%, 1(S): 117%) were slightly enantioselectively impacted. However, we theorize that those marginal inhibitions are not explanatory for the antiproliferative and morphological effects of 1(R) on cancer cells.

CDK2/CycA2 = CDK2/CycA2 (Homo sapiens, UniProt P24941); assay: biochemical; set-up: 33PanQinase radiometric kinase activity assay, residual activity in % of control, contract lab Reaction Biology; conditions: mean of intraexperimental duplicates, n = 1
Protocol: as §1

Mps1/TTK = target: T1, Mps1/TTK (Homo sapiens, UniProt P33981); assay: biochemical; set-up: 33PanQinase radiometric kinase activity assay, residual activity in % of control, contract lab Reaction Biology; conditions: mean of intraexperimental duplicates, n = 1
T1 sequence (P33981 1-857): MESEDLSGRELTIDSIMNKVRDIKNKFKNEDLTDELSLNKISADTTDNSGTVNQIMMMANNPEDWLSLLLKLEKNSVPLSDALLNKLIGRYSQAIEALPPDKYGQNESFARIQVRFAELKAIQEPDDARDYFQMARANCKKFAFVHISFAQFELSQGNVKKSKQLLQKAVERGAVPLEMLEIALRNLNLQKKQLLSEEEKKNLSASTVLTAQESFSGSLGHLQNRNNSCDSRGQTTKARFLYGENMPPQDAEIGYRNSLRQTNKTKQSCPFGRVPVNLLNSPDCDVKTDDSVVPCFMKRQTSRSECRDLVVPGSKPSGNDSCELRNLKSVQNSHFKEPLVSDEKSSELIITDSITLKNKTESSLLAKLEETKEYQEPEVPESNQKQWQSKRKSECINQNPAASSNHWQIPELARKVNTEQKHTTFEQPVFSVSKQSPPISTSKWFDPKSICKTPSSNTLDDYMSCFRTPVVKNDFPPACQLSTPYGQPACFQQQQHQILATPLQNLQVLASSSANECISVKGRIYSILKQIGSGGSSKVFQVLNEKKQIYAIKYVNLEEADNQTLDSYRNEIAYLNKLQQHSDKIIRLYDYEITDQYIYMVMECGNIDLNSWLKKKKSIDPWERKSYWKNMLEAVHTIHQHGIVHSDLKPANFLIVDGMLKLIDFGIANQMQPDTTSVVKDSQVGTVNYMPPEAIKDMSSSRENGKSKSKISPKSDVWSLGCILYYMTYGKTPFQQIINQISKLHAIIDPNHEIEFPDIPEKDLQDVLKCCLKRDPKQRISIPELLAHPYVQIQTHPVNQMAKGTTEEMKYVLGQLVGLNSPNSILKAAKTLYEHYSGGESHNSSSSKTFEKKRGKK
Protocol: as §1

SRC = SRC (Homo sapiens, UniProt P12931); assay: biochemical; set-up: 33PanQinase radiometric kinase activity assay, residual activity in % of control, contract lab Reaction Biology; conditions: mean of intraexperimental duplicates, n = 1
Chain of SRC (P12931 whole entry): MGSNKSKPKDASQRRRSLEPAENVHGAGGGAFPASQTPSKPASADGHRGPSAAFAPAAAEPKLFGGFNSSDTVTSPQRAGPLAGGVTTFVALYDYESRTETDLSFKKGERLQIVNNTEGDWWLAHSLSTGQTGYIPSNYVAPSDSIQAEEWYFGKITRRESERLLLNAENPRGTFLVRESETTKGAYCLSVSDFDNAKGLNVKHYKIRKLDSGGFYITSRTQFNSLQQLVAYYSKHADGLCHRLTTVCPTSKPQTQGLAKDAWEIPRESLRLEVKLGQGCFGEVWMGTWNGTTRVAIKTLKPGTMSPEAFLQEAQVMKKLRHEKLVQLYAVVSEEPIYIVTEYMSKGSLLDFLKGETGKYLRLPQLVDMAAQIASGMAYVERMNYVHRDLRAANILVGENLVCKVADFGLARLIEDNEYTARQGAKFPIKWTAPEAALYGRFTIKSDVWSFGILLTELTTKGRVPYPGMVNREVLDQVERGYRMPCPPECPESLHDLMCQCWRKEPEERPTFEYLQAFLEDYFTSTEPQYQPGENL
Protocol: as §1

AuroraA = target: T2, AuroraA (Homo sapiens, UniProt O14965); assay: […]PanQinase radiometric kinase assay (Reaction Biology); type: biochemical; conditions: read-out: Residual activities [% of control] / 1(R) 10 μM
T2 construct: gene AURKA
T2 sequence (O14965 1-403): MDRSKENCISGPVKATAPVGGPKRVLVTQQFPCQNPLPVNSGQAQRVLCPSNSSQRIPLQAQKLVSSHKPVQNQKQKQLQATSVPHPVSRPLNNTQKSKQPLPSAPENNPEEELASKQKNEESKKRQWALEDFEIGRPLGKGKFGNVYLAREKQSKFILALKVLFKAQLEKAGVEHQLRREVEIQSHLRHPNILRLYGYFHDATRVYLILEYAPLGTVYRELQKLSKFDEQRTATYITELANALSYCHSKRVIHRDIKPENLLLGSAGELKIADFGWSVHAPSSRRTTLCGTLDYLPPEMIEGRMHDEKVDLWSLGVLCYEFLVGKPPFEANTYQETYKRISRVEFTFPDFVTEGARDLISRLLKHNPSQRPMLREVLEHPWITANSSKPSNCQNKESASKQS

[1] = read-out: Residual activities [% of control] / 1(R) 10 µM
[2] = read-out: Residual activities [% of control] / 1(S) 10 µM

How did the remaining activity at 10 µM (WEE1; [1]) turn out when `Nc1ccc2ccccc2c1-c1c(N)ccc2ccccc12` [1(R), (R)‐[1,1′‐binaphthalene]‐2,2′‐diamine] was run?
Its remaining activity at 10 µM is 99%.

And the remaining activity at 10 µM (CDK2/CycA2; [1])?
The remaining activity at 10 µM was 95%.

What about the remaining activity at 10 µM (Mps1/TTK; [1]) of the same molecule?
The remaining activity at 10 µM was 98%.

And the remaining activity at 10 µM (SRC; [1])?
Its remaining activity at 10 µM is 99%.

What about the remaining activity at 10 µM (AuroraA) of the same molecule?
Its remaining activity at 10 µM is 86%.

Which remaining activity at 10 µM (WEE1; [2]) does the source give for `Nc1ccc2ccccc2c1-c1c(N)ccc2ccccc12` [1(S), S‐BINAM] here?
The remaining activity at 10 µM was 98%.

And the remaining activity at 10 µM (CDK2/CycA2; [2])?
The remaining activity at 10 µM was 92%.

And the remaining activity at 10 µM (Mps1/TTK; [2])?
Its remaining activity at 10 µM is 97%.

And the remaining activity at 10 µM (SRC; [2])?
Its remaining activity at 10 µM is 103%.
